The structures appear in SMILES notation.

The target in this assay is T1, M2 muscarinic receptor (Rattus norvegicus, UniProt P10980).
T1 construct: Submandibular glands and heart were isolated and placed in ice cold homogenizing buffer; from tissue; host or cells: rat heart membrane homogenate
T1 sequence (P10980 1-466): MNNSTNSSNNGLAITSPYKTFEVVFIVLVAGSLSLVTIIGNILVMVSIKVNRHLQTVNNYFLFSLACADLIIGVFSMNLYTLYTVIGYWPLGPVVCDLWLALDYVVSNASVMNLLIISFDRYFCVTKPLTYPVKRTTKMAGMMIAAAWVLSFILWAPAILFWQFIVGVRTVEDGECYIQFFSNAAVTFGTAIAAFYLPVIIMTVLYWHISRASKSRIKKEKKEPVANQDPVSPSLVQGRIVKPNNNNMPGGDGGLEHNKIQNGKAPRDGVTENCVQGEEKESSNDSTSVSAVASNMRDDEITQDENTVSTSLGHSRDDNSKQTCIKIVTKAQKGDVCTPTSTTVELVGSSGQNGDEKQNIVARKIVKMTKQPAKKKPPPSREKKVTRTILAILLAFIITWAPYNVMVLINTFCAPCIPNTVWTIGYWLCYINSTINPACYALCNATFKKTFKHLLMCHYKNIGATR
The assay is described as follows: Radioligand binding assay, [3H]-N-methylscopolamine, rat heart membranes. Particulars: [3H]NMS binding.
As usually defined, the Ki is a dissociation constant, usually derived from enzyme kinetics or from competition with a known ligand. High values mean lower affinity, low ones higher affinity. In the case of `Cc1ccc(O)c(C(CCN2CC3CC3C2C)c2ccccc2)c1` (single isomer, unassigned) [Compound No. 8, 1-(2-methyl-3-azabicyclo[3.1.0]hex-3-yl)-3-(2-hydroxy-5-methylphenyl)-3-phenyl propane], the Ki came out at 34 nM.

As for `Cc1ccc(O)c(C(CCN2CC3CC3C2C)c2ccccc2)c1` (single isomer, unassigned) [Compound No. 9, 1-(2-methyl-3-azabicyclo[3.1.0]hex-3-yl)-3-(2-hydroxy-5-methylphenyl)-3-phenyl propane], the Ki came out at 42 nM.

`Cc1ccc(O)c(C(CCN2CC3CC3C2)c2ccccc2)c1` (stereo not drawn) [Compound No. 2, 1-(3-azabicyclo[3.1.0]hex-3-yl)-3-(2-hydroxy-5-methylphenyl)-3-phenyl propane] displayed a Ki of 105 nM.

Regarding `Cc1ccc(OCc2ccccc2)c(C(CCN2CC3(C)CC3(C)C2)c2ccccc2)c1` (stereo not drawn) [Compound No. 3, 1-(1,5-dimethyl-3-azabicyclo[3.1.0]hex-3-yl)-3-(2-benzyloxy-5-methylphenyl)-3-phenyl propane], the Ki was > 10000 nM.

Consider `Cc1ccc(O)c(C(CCN2CC3(C)CC3(C)C2)c2ccccc2)c1` (stereo not drawn) [Compound No. 4, 1-(1,5-dimethyl-3-azabicyclo[3.1.0]hex-3-yl)-3-(2-hydroxy-5-methylphenyl)-3-phenyl propane], for which the Ki was > 1000 nM.

Turning to `Cc1ccc(O)c(C(CCN2CC3CC3(C)C2)c2ccccc2)c1` (stereo not drawn) [Compound No. 6, 1-(1-methyl-3-azabicyclo[3.1.0]hex-3-yl)-3-(2-hydroxy-5-methylphenyl)-3-phenyl propane], the affinity, expressed as Ki, was 221 nM.

The record behind these values is US7410993B2, “3,6-disubstituted azabicyclo [3.1.0] hexane deriviatives useful as muscarinic receptor antagonists” (Ranbaxy Laboratories Limited, priority 2002, dated 2008).
